Results on 22 compounds are retold here after PubChem BioAssay (NCI).

Common to all, as to experiment: NCI-60 cell line screen, 48 h
Assay [1] has as its system PC-3 prostate.
In assay [2] the test system is HT29 colon.
The subject of assay [3] is CAKI-1 renal.
Assay [4] has as its system SW-620 colon.
The subject of assay [5] is SR leukemia.

Values joined by “and” are separate entries in the source; they are usually repeats but may differ in a detail not shown here. Identical values can stand only once.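 Growth conditions: 96-well plates. Treatment: test compound, 48 hours, 5 concentrations. Analysis: linear interpolation between bracketing concentrations; unreached endpoints set to highest concentration. GI50 is the concentration that inhibits growth by half. TGI: concentration producing complete growth inhibition.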

With `CC1CC/C(=C\c2ccc(Cl)cc2)C(=O)/C1=C\c1ccc(Cl)cc1` (configuration not stated), the TGI in assay [1] was greater than 100 µM; in assay [2], greater than 100 µM; in assay [3] it was 44.9 µM; in assay [4], greater than 100 µM.
On to `COC(=O)C1=C(C(=O)OC)C2(c3ccccc3)c3ccccc3C(=O)C1N2C1CCCCC1` (configuration not stated), for which the TGI in assay [1], in assay [2], in assay [3] and in assay [4] was greater than 100 µM in each case.
For `O=c1[nH]nc(Cc2ccccc2)n1N=C1CCCCC1`, the TGI in assay [1], in assay [2], in assay [3] and in assay [4] was greater than 100 µM each time.
With `N#Cc1cccc(Nc2ccccc2SSc2ccccc2Nc2cccc(C#N)c2)c1`, the TGI in assay [1] is 13.9 µM; in assay [2], 15.3 µM; in assay [4] it was 9.19 µM.
Turning to `O=C1CCCSCCCC(=O)CCCSCCC1`, the TGI in assay [1], in assay [2], in assay [5] and in assay [4] was greater than 100 µM throughout.
Consider `CCCCn1c(C)c(C)c2c1NN=C(C#N)S2(=O)=O`, for which the TGI in assay [1], in assay [2], in assay [5] and in assay [4] was greater than 100 µM throughout.
Take `C=CCN1C(=O)/C(=C/c2ccccc2)N=C1SC/C=C/C`: the TGI was 55.8 µM in assay [1], 23.3 µM in assay [5], greater than 100 µM in assay [3] and greater than 100 µM in assay [4].
In the case of `CNc1nc2c(C)ccc3nc(N(C)C)nc-3c2n1C`, the TGI in assay [1], in assay [2], in assay [3] and in assay [4] was greater than 10 µM each time.
On to `COc1nc(N)nc2c1n(C)c[n+]2C`, for which the TGI in assay [1], in assay [2], in assay [3] and in assay [4] was greater than 100 µM in each case.
Regarding `[N-]=[N+]=NC1(c2ccccc2)C(=O)c2cccc3c4ccccc4n(c23)C1=O` (configuration not stated), the TGI in assay [1] was greater than 100 µM; in assay [2], 50.8 µM; in assay [3] it was greater than 100 µM; in assay [4], greater than 100 µM.
Take `CC(SC(=S)N1CCCC1)C(=O)Nc1nnc(-c2ccc(Cl)cc2)o1` (configuration not stated): the TGI was greater than 100 µM in assay [1], 51 µM in assay [2] and greater than 100 µM in assay [4].
In the case of `O=S(=O)(O)c1cc(S(=O)(=O)O)c2c(N=Nc3ccccc3)c(O)ccc2c1`, the TGI in assay [1], in assay [2], in assay [3] and in assay [4] was greater than 100 µM throughout.
With `CC(C)C(=O)CC(Sc1ccc(N)cc1)c1ccccc1` (configuration not stated), the TGI in assay [1] is greater than 100 µM; in assay [2] it was greater than 100 µM; in assay [3] it was greater than 100 µM; in assay [4] it was 34.8 µM.
Regarding `CC[C@@]1(O)C(=O)OCc2c1cc1n(c2=O)Cc2c-1nc1ccccc1c2C=Nc1ccc(N[C@@H]2c3cc4c(cc3[C@@H](c3cc(OC)c(O)c(OC)c3)[C@H]3C(=O)OC[C@@H]32)OCO4)cc1`, the GI50 in assay [1] is 0.822 µM and 0.0864 µM; in assay [2], 0.364 µM and 0.104 µM. Besides, the TGI in assay [1] is greater than 100 µM; in assay [2], greater than 100 µM; in assay [5] it was 28.2 µM; in assay [4], 55.7 µM and > 100 µM.
As to `CC(=O)N1c2ccccc2C2=NN=C(N(C)C)SC21` (configuration not stated), the TGI in assay [1] was found to be 18 µM; in assay [2], 20.5 µM; in assay [5], 21.2 µM; in assay [4], 20 µM.
As for `COc1ccc(-c2cc(-c3ccccc3)c3c(n2)-c2ccccc2NC(=O)C3)cc1`, the TGI in assay [1], in assay [2], in assay [3] and in assay [4] was greater than 100 µM each time.
With `COc1ccccc1-c1n[nH]c(-c2ccccc2O)n1`, the TGI in assay [1], in assay [2], in assay [3] and in assay [4] was greater than 100 µM throughout.
As for `Nc1c(O)c2c(c(O)c1Cl)C(=O)C=CC2=O`, the TGI in assay [1] was 14.8 µM; in assay [2] it was 8.21 µM; in assay [3], 32.2 µM; in assay [4] it was 9.93 µM.
In the same order, the values of `O=[N+]([O-])/C(C(Cl)=C(Cl)Cl)=C(\Nc1cccc2cccnc12)Sc1ccccc1` are 80.5 µM, 73.6 µM, 46.7 µM and 31.9 µM.
As for `CCCCC1=C(C(=O)N2CCOCC2)C2(OCCO2)C1Cl` (configuration not stated), the TGI in assay [1] was greater than 100 µM; in assay [2], 78.6 µM; in assay [3] it was 86.5 µM; in assay [4], 89.5 µM.
In the case of `CN(C)c1ccc(/C=C(\NC(=O)c2ccccc2)c2nc3ccccc3c(=O)o2)cc1`, the TGI in assay [1], in assay [2], in assay [3] and in assay [4] was greater than 100 µM in each case.
Take `Nc1ccc2c(c1)N(C(=O)CCCC(=O)N1CC(CCl)c3ccc(N)cc31)CC2CCl` (configuration not stated): the TGI in assay [1] is 16.4 µM; in assay [2] it was greater than 13.5 µM; in assay [4], greater than 50 µM.
